Experimental data from patent US12414566B2, “Safener containing herbicidal oil dispersion” (ARYSTA LIFESCIENCE INC, priority 2017, dated 2025).
Read-outs that look alike come from different tables or passages of the source.

Assay: Chemical stability in butyl benzoate
Type: physicochemical

Row | SMILES | chemical stability in the butyl benzoate | chemical stability in the butyl benzoate (room temperature or accelerated temperature)
1 | COc1nn(C(=O)[N-]S(=O)(=O)c2ccccc2OC(F)(F)F)c(=O)n1C.[Na+] [Flucarbazone sodium] | chemically stable | 
2 | CC(Oc1ccc(Oc2nc3ccc(Cl)cc3o2)cc1)C(=O)O (centres unmarked) [fenoxaprop] |  | chemically stable
